Measured values as given in patent US20110212165A1, “PHARMACEUTICAL COMPOSITIONS OF THE ISOLATED D-ENANTIOMER OF THE QUINAZOLINONE DERIVATIVE HALOFUGINONE” (priority 2005, published 2011).
“Also recorded” adds a separate entry of the source.

Key:
[1] = test system: hAoSMC, HUVEC, Detroit 551, 5637, HT1080 and MDA-MB-435S cells; experiment: Cell proliferation assay (methylene blue staining) of cultured, actively growing cells; format: cell-based, Human; details: all tested cells (hAoSMC, HUVEC, Detroit 551, 5637, HT1080, MDA-MB-435S); increasing concentrations, 72-96 hours after seeding
Text: The present study sought to compare the effect of each of the trans-halofuginone enantiomers to the racemic mixture on proliferation of cultured, actively growing cells. Human aortic smooth muscle cells (hAoSMC) and Human Umbilical Vein Endothelial Cells (HUVEC) were purchased from Clonetics and grown in Clonetics suitable growth media. Human skin fibroblasts (Detroit 551) and human fibrosarcoma (HT1080) cell lines were purchased from the American Type Culture Collection (ATCC) and grown in MEM supplemented with 10% FCS, 1 mM Sodium pyruvate, 2 mM L-glutamine and 0.2% antibiotic solution (Biological industries, Beit-Haemek, Israel). The human bladder carcinoma (5637) and human breast carcinoma (MDA-MB-435S) cell lines were purchased from the ATCC and grown in DMEM supplemented with 10% FCS and 0.2% antibiotic solution (Biological industries, Beit-Haemek, Israel). Cells were grown in 37° C. and 5% CO2. Cells were seeded in 96-well plates. Twenty-four hours later, increasing concentrations of tested compounds were added to the wells. When the cultures reached sub confluence (72-96 hours after seeding) the cells were fixed with 2.5% glutaraldehyde, washed three times with distilled water, followed by one wash with 0.1 M Boric buffer (pH 8.5). […] The optical density at 620 nm was determined using a micro plate spectrophotometer.

[2] = test system: collagen type I synthesis of skin fibroblasts (Detroit 551); experiment: Collagen type I synthesis of skin fibroblasts (CICP, Prolagen-C ELISA); format: cell-based, Human; details: for effect on collagen type I synthesis of skin fibroblasts: Detroit 551, 75 μM ascorbic acid, 48 h, increasing concentrations
Method: Skin fibroblasts (Detroit 551) were seeded in a 96-well plate (3000 cells/well). Twenty-four hours later the cells were incubated for additional 48 h with 75 μM ascorbic acid and increasing concentrations of the tested compounds (induction medium was exchanged after 24 h). Cell medium was collected and the Prolagen-C ELISA kit of “METRA” was used for detection of collagen type I C′ propeptide (CICP) concentration.

coccidiosis = details: versus racemic compound; cited from earlier work

SMILES | effect on cell proliferation [1] | effect on collagen type I synthesis of skin fibroblasts [2] | effect on collagen type I synthesis of skin fibroblasts ([2]; listed as D-enantiomer of halofuginone) | activity in suppressing collagen type I synthesis relative to the racemic mixture ([2]; Detroit 551, versus racemic mixture of halofuginone, listed as D-enantiomer of halofuginone) | coccidiostatic activity relative to the racemic compound (coccidiosis)
O=C(CC1NCCCC1O)Cn1cnc2cc(Br)c(Cl)cc2c1=O (single isomer, unassigned; enantiomer 7) [L-enantiomer, 7-bromo-6-chloro-3-[3-(3-hydroxy-2-piperidinyl)-2-oxopropyl]-4(3H)-quinazolinone] | no effect; also recorded: virtually inactive | no effect; also recorded: virtually inactive | – | – | –
O=C(CC1NCCCC1O)Cn1cnc2cc(Br)c(Cl)cc2c1=O (single isomer, unassigned; enantiomer 7) [D-enantiomer, 7-bromo-6-chloro-3-[3-(3-hydroxy-2-piperidinyl)-2-oxopropyl]-4(3H)-quinazolinone] | suppressed proliferation of all the tested cells in a dose dependent manner | – | suppressed collagen type I synthesis of skin fibroblasts in a dose dependent manner | about two | three
